Experimental data as given in patent US7884242B2, “N-heterocyclylphthaldiamides as insecticides” (Bayer CropScience AG, priority 2004, dated 2011).

Key:
[1] = log P determination by HPLC on reverse phase column, pH 2.3; assay type: physicochemical; conditions: reverse phase HPLC column (C 18), reverse phase column (C 18), pH 2.3, 43° C.
Procedure: The determination of the log P values given in the above table and preparation examples is carried out in accordance with EEC directive 79/831 Annex V.A8 by HPLC (High Performance Liquid Chromatography) on a reverse phase column (C 18). Temperature: 43° C. The determination is carried out under acidic conditions at pH 2.3 with 0.1% aqueous phosphoric acid and acetonitrile as eluents; linear gradient of 10% acetonitrile to 95% acetonitrile. Calibration was is carried out with unbranched alkan-2-ones (with 3 to 16 carbon atoms) of known log P values (Determination of log P values by the retention times by linear interpolation between two sequential alkanones).

[2] = test system: green peach aphid (Myzus persicae); assay: Myzus test (spray treatment); assay type: in vivo; conditions: for pest or weed control at 100 g/ha: Myzus persicae, in Brassica oleracea, 120 h, spray treatment, China cabbage slices, after 5 d, read-out: Death rate in % after 5d; for activity in Myzus test (spray treatment): statement in words
Procedure: [table] For the preparation of a suitable active compound formulation 1 part by weight of the active compound is mixed with the above amounts of solvent and emulsifier and the concentrate is diluted to the desired concentration with water containing emulsifier. China cabbage slices (Brassica pekinensis) that are infected with all stages of the green peach aphid (Myzus persicae) are sprayed with an active compound preparation at the desired concentration. After the desired time the activity in % is determined. Here 100% means that all aphids were killed; 0% means that no aphids were killed.

[3] = test system: larvae of the mustard leaf beetle (Phaedon cochleariae); assay: Phaedon test (spray treatment); assay type: in vivo; conditions: for activity in Phaedon test (spray treatment): statement in words
Procedure: (§1) [table] For the preparation of a suitable active compound formulation 1 part by weight of the active compound is mixed with the above amounts of solvent and emulsifier and the concentrate is diluted to the desired concentration with water containing emulsifier. China cabbage slices (Brassica pekinensis) are sprayed with an active compound preparation of the desired composition and after drying infected with larvae of the mustard leaf beetle (Phaedon cochleariae). After the desired time the activity in % is determined. Here 100% means that all beetle larvae were killed; 0% means that no beetle larvae were killed.

[4] = test system: caterpillars of the fall army worm (Spodoptera frugiperda); assay: Spodoptera frugiperda test (spray treatment); assay type: in vivo; conditions: for pest or weed control at 4 g/ha: Spodoptera frugiperda, 168 h, spray treatment, maize leaf sections, after 7 d, read-out: Death rate in % after 7d; for activity in Spodoptera frugiperda test (spray treatment): statement in words
Procedure: as §1, with “Maize leaf sections (Zea mays)” for “China cabbage slices (Brassica pekinensis)”, “concentration” for “composition”, “caterpillars” for “larvae”, “fall army worm (Spodoptera frugiperda).” for “mustard leaf beetle (Phaedon cochleariae).”, “caterpillars” for “beetle larvae”

[5] = test system: caterpillars of the beet army worm (Spodoptera exigua); assay: Spodoptera exigua test (resistant strain); assay type: in vivo; conditions: for Death rate in % after 7d: resistant strain, cabbage leaves dipped; for activity in Spodoptera exigua test (resistant strain): statement in words
Procedure: [table] For the preparation of a suitable active compound formulation 1 part by weight of the active compound is mixed with the above amounts of solvent and emulsifier and the concentrate is diluted to the desired concentration with water containing emulsifier. Cabbage leaves (Brassica oleracea) are treated by dipping in the active compound preparation at the desired concentration and infected with caterpillars of the beet army worm (Spodoptera exigua) while the leaves are still moist. After the desired time the death rate in % is determined. Here 100% means that all caterpillars were killed; 0% means that no caterpillars were killed.

[6] = test system: green peach aphid (Myzus persicae); assay: Myzus persicae test; hydroponic treatment; assay type: in vivo; conditions: for Death rate in % after 6d: 20 ppm in water, hydroponic treatment, pea plant; for activity in Myzus persicae test; hydroponic treatment: statement in words
Procedure: [table] For the preparation of a suitable active compound formulation 1 part by weight of the active compound is mixed with the above amounts of solvent and emulsifier and the concentrate is diluted to the desired concentration with water. The active compound preparation is mixed with water. The concentration given refers to the amount of active compound per unit volume of water (mg/l=ppm). The treated water is placed in a vessel with a pea plant (Pisum sativum) which is then infection with the green peach aphid (Myzus persicae) is carried out. After the desired time the death rate in % is determined. Here 100% means that all aphids were killed, 0% means that no aphids were killed.

[7] = test system: two-spotted spider mite (Tetranychus urticae); assay: Tetranychus Test OP resistant; assay type: in vivo
Procedure: [table] For the preparation of a suitable active compound formulation 1 part by weight of the active compound is mixed with the above amounts of solvent and emulsifier and the concentrate is diluted to the desired concentration with water containing emulsifier. Bean leaf slices (Phaseolus vulgaris) that are infested by all stages of the two-spotted spider mite (Tetranychus urticae) are sprayed with an active substance preparation at the desired concentration. After the desired time the action in % is determined. Here 100% means that all spider mites were killed; 0% means that no spider mites were killed.

[8] = test system: caterpillars of the diamond back moth (Plutella xylostella); assay: Plutella test; assay type: in vivo
Procedure: [table] For the preparation of a suitable active compound formulation 1 part by weight of the active compound is mixed with the above amounts of solvent and emulsifier and the concentrate is diluted to the desired concentration with water containing emulsifier. Cabbage leaves (Brassica oleracea) are treated by dipping into the active compound preparation of the desired concentration and infected with caterpillars of the diamond back moth (Plutella xylostella) while the leaves were still wet. After the desired time the death rate is determined as %. Here 100% means that all caterpillars were killed; 0% means no caterpillars were killed.

[9] = test system: caterpillars of the cotton boll worm (Heliothis armigera); assay: Heliothis armigera test; assay type: in vivo
Procedure: [table] For the preparation of a suitable active compound formulation 1 part by weight of the active compound is mixed with the above amounts of solvent and emulsifier and the concentrate is diluted to the desired concentration with water containing emulsifier. Soy bean leaves (Glycine max.) are treated by dipping into the active compound preparation at the desired concentration and infected with the caterpillars of the cotton boll worm (Heliothis armigera), while the leaves are still wet. After the desired time the death rate in % is determined. Here 100% means that all caterpillars were killed; 0% means that no caterpillars were killed.

[10] = log P determination with LC-MS under acidic conditions, pH 2.7; assay type: physicochemical; conditions: reverse phase HPLC column (C 18)
Procedure: The determination of the log P values given in the above table and preparation examples is carried out in accordance with EEC directive 79/831 Annex V.A8 by HPLC (High Performance Liquid Chromatography) on a reverse phase column (C 18). Temperature: 43° C. The determination with LC-MS under acidic conditions is carried out at pH 2.7 with 0.1% aqueous formic acid and acetonitrile (contains 01% formic acid) as eluents; linear gradient from 10% acetonitrile to 95% acetonitrile. Calibration was is carried out with unbranched alkan-2-ones (with 3 to 16 carbon atoms) of known log P values (Determination of log P values by the retention times by linear interpolation between two sequential alkanones).

[11] = Phaedon cochleariae, 168 h, spray treatment, China cabbage slices, after 7 d, read-out: Death rate in % after 7d

chromatographic logP [1]	Compound	pest or weed control at 100 g/ha [2]	activity in Myzus test (spray treatment) [2]	activity in Phaedon test (spray treatment) [3]	pest or weed control at 4 g/ha [4]	activity in Spodoptera frugiperda test (spray treatment) [4]	further results
2.69	Cc1nc(Cn2nc(C(F)(F)F)cc2C(F)(F)F)ccc1NC(=O)c1cccc(Cl)c1C(=O)N[C@@H](C)CS(C)(=O)=O [Example 9]	100%	good activity	good activity	100%	good activity	pest or weed control at 100 g/ha ([3]; Phaedon cochleariae, 168 h, 100 g/ha, spray treatment, China cabbage slices, after 7 d, read-out: Death rate in % after 7d): 100%; Death rate in % after 7d ([5]; 0.8 ppm): 80%; activity in Spodoptera exigua test (resistant strain) [5]: good activity
2.27	Cc1nc(Cn2nc(C(F)(F)F)cc2C(F)(F)F)ncc1NC(=O)c1cccc(I)c1C(=O)N[C@@H](C)C[S+](C)[O-] (stereo partly drawn) [Example 24]	100%	good activity		83%	good activity	Death rate in % after 6d [6]: 95%; activity in Myzus persicae test; hydroponic treatment [6]: good activity
2.54	Cc1nc(Cn2nc(C(F)(F)F)nc2C(F)(F)F)ncc1NC(=O)c1cccc(I)c1C(=O)N[C@@H](C)CS(C)(=O)=O [Example 41]	90%	good activity				Death rate in % after 6d [6]: 95%; activity in Myzus persicae test; hydroponic treatment [6]: good activity
4.11	CSC[C@H](C)NC(=O)c1c(Cl)cccc1C(=O)Nc1cnc(Cn2cc(C(F)(F)C(F)(F)F)c(C(F)(F)C(F)(F)F)n2)nc1C [Example 64]	100%	good activity	good activity	100%	good activity	pest or weed control at 4 g/ha [3, 11]: 100%; Death rate in % after 5d ([7]; 100 g/ha, OP resistant, bean leaf slices sprayed, after 5 d): 100%; activity in Tetranychus Test OP resistant ([7]; statement in words): good activity
3.29	Cc1nc(Cn2cc(C(F)(F)C(F)(F)F)c(C(F)(F)C(F)(F)F)n2)ncc1NC(=O)c1cccc(Cl)c1C(=O)N[C@@H](C)CS(C)(=O)=O [Example 66]	100%	good activity	good activity	100%	good activity	pest or weed control at 4 g/ha [3, 11]: 100%; Death rate in % after 7d ([8]; 0.8 ppm, cabbage leaves dipped, after 7 d): 100%; activity in Plutella test ([8]; statement in words): good activity; Death rate in % after 7d ([5]; 4 ppm): 100%; activity in Spodoptera exigua test (resistant strain) [5]: good activity; Death rate in % after 7d ([9]; 0.8 ppm, soy bean leaves dipped, after 7 d): 80%; activity in Heliothis armigera test ([9]; statement in words): good activity
	Cc1nc(Cn2nc(C(F)(F)F)cc2C(F)(F)F)ccc1[N+](=O)[O-] [IV-1, 6-{[3,5-bis(trifluoromethyl)-1H-pyrazol-1-yl]methyl}-2-methyl-3-nitropyridine]						chromatographic logP [10]: 3.8
	Cc1nc(CBr)ccc1[N+](=O)[O-] [VII-1, 6-(bromomethyl)-2-methyl-3-nitropyridine]						chromatographic logP [10]: 2.2
